This is an account of results in article PMC7470027, “Synthesis and structure-activity relationships of novel 5-(hydroxamic acid)methyl oxazolidinone derivatives as 5-lipoxygenase inhibitors” (Journal of Enzyme Inhibition and Medicinal Chemistry, 2020).

For orientation: melting point means the temperature, or range, at which the solid turns liquid.

Like-named read-outs stand apart in the source and are kept apart here. Where only a bound is given, the exact number is not on record here.

Data set [1] concerns 5-LO-dependent generation of LTB4 from activated human whole blood. Briefly: Inhibition of 5-LO product LTB4 from activated human whole blood (LPS/FMLP). It counts as cell-based. The following applies: LPS-primed, FMLP-stimulated human whole blood; 95% confidence interval in brackets; read-out: Human whole blood LTB4 IC50 (CI). On the procedure: All compounds were evaluated for inhibitory activity against the 5-LO-dependent generation of LTB4 from activated human whole blood. With ethical approval from the Health Sciences Centre Ethical Committee of Kuwait University, heparinised fresh human blood samples from apparently healthy individuals of both sexes were obtained from the Kuwait Central Blood Bank. All donors gave informed consent and the work was carried out in accordance with the “Declaration of Helsinki” for experiments involving human subjects. Aliquots of 185 µl of whole blood were dispensed into each well of a 96-well culture plate containing 5 µl of the priming agent, LPS (1 µg/ml final concentration). […] After further incubation for 15 min at 37 °C, 5 µl of FMLP (1 µM final concentration) was added to stimulate LT production. The reaction was stopped 15 min later, and the supernatants were recovered by centrifugation and stored at −40 °C pending analysis of LTB4 content.
(§1) Appropriately diluted supernatants were assayed for the released products – LTs (LTB4 and LTC4), by the enzyme immunoassay (EIA) method using assay kits supplied by R&D Systems (Minneapolis, MN) and following the manufacturer’s instructions.
(§2) All data were analysed using GraphPad Prism software (GraphPad Software, San Diego, CA). […] Differences between experimental groups were first analysed by one-way ANOVA, followed by Bonferroni’s post-hoc test. A p-value of less than 0.05 was taken as statistically significant.

In data set [2] the test system is 5-LO product LTC4 from isolated human monocytes. Nature of the data set: Inhibition of 5-LO product LTC4 from isolated human monocytes (A23187). The format is cell-based. The following applies: calcium ionophore A23187, 95% confidence interval in brackets, read-out: Human monocyte LTC4 IC50 (CI). How it is done:
Mononuclear cells were first isolated from heparinised blood using the Ficoll-Hypaque gradient centrifugation method. Monocytes were subsequently purified by adherence to plastic according to standard protocols. The purity of the adherent monocytes (CD14+) was routinely confirmed by flow cytometry to be >95% and viability (by trypan blue exclusion method) was routinely >97%. Adherent monocytes were then washed and incubated in 190 µl culture medium RPMI-1640 supplemented with 100 U/ml penicillin, 100 µg/ml streptomycin and 10% heat-inactivated foetal bovine serum (Sigma-Aldrich, St Louis, MO). […] After further incubation for 15 min, the culture supernatants were recovered by centrifugation and stored at −40 °C pending LTC4 determination.
as §1, §2

Data set [3] has as its system 5-LO product LTC4 from allergen/IgE-activated bone marrow-derived mouse mast cells (BMMC). Briefly: Inhibition of 5-LO product LTC4 from allergen/IgE-activated bone marrow-derived mouse mast cells (BMMC). The format is cell-based. The following applies: anti-DNP IgE/DNP-BSA-activated BMMC, 95% confidence interval in brackets, read-out: Mouse mast cell LTC4 IC50 (CI). How it is done:
Bone marrow-derived mast cells (BMMC) were generated from pathogen-free 5 to 7-weeks-old male Balb/c mice according to the method of Davis et al.[28]. Essentially, bone marrow cells were obtained by flushing the femoral bone marrow and the recovered cells cultured in RPMI 1640 medium supplemented with 10% FBS, 100 U/ml penicillin, and 100 µg/ml streptomycin, 25 mM HEPES, 1.0 mM sodium pyruvate, 0.1 mM nonessential amino acids, 0.0035% 2-mercaptoethanol, and 30 ng/ml mouse recombinant IL-3, with culture medium, replaced every 2 days. Cells were used after 4–8 weeks of culture, by which time at least 97% of the cells would have differentiated into mast cells, as routinely obtained in our laboratory.
The generated BMMCs were seeded at 5 × 10^4 cells/well in a 96-well flat-bottom culture plate and passively sensitised overnight with 0.5 µg/ml anti-DNP monoclonal IgE antibody. The cells were then washed twice to remove any unbound antibody and subsequently resuspended in reaction buffer (135 mM NaCl, 5 mM KCl, 1.8 mM CaCl2, 1 mM MgCl2, 5.6 mM glucose, 0.05% BSA and 20 mM HEPES, pH 7.4). They were then pre-incubated with the test compounds (0.001 − 30 μM) or the solvent (0.05% DMSO) for 15 min before being stimulated with the specific antigen, DNP-BSA (10–30 ng/ml). After 30 min incubation at 37 °C, the amount of LTC4 released into the supernatant was determined by ELISA as described below.
as §1, §2

A further data set addresses T1, recombinant human 5-LO (Homo sapiens, UniProt P09917).
T1 sequence (P09917 1-674): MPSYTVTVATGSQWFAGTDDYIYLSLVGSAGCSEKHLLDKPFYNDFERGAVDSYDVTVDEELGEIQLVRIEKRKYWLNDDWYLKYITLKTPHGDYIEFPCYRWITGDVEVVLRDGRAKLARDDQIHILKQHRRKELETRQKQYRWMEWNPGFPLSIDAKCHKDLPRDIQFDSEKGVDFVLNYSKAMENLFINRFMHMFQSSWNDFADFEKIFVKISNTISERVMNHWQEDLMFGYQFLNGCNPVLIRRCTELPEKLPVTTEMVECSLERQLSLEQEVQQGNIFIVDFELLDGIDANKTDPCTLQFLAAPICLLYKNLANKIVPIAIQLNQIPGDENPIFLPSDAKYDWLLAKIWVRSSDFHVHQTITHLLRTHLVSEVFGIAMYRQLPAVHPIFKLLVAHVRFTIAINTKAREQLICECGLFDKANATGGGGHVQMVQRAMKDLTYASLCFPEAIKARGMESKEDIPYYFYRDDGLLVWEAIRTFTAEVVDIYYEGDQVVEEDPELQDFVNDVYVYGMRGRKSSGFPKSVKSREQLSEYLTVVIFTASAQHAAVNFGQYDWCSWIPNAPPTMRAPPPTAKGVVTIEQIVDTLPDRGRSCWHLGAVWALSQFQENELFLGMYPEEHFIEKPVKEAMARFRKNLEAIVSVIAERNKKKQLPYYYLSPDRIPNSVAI
Nature of the data set: Direct inhibition of 5-LO activity in a cell-free assay (H2DCF-DA fluorescence). The format is biochemical. Conditions: for IC50: cell-free, recombinant human 5-LO, 95% confidence interval in brackets. On the procedure:
The assay was based on the oxidation of the dye 2′,7′-dichlorodihydrofluorescein diacetate (H2DCF-DA) to a highly fluorescent product by 5-LO enzymatic products. H2DCF-DA (60 µM) was first pre-cleaved by incubating with 450 mU/ml recombinant human 5-LO enzyme in Tris buffer (containing 50 mM Tris, pH = 7.5, 2 mM EDTA, 2 mM CaCl2, 1 mM DTT and 0.6 U/ml glutathione peroxidase) for 10 min at room temperature. […] After 10 min incubation at room temperature, the reaction was started with the addition of 50 µl of substrate solution (Tris buffer containing 20 µM ATP and 20 µM arachidonic acid (AA). After a further 20 min, the reaction was terminated with 100 µl acetonitrile. Fluorescence was read at 500 nm excitation and 520 nm emission, with Novostar^R microplate reader (BMG Labtech, Offenburg, Germany). Appropriate controls, including 100 µM nordihydroguaiaretic acid (NDGA), were included to isolate only the 5-LO-attributable, NDGA-inhibitable RFU values.
as §2

Data set [4] relates to leukotriene (LT) biosynthesis / 5-LO. Briefly: Overall activity across the four in vitro test systems (three cell-based LT release assays and 5-LO). The following applies: for Activity across the in vitro test systems (in words): cell-based systems and cell-free 5-LO. How it is done:
Furthermore, in order to confirm that the in vitro inhibitory activity of the compounds was not due to the direct toxic effects on the cells, the effect of the compounds on the viability of isolated human monocytes after 3 h and 24 h treatment was performed. Finally, in vivo anti-inflammatory studies were performed using the zymosan-induced peritoneal inflammation model in mice, which is a well-known model in which the LTs are known to play a critical role[26].
The inhibitory activity data for the tested compounds obtained in three cell-based in vitro test systems - LTB4 release from human whole blood, LTC4 release from isolated human monocytes and LTC4 release from IgE/antigen-activated mouse mast cells, are shown in Table 1. Similar data on the direct inhibitory effect on the enzymatic activity of recombinant human 5-LO, together with the calculated Clog P (log of partition coefficient) values, which is an indication of the lipophilicity of each compound, are also shown in Table 1.

Setting [5] is: read-out: Direct inhibition of 5-LO activity. IC50 (CI).

In the case of `O=C(C1CCCC1)N(O)C[C@H]1CN(c2ccc(N3CCOCC3)c(F)c2)C(=O)O1` [PH-244, (R)-N-((3-(3-fluoro-4-morpholinophenyl)-2-oxooxazolidin-5-yl)methyl)-N-hydroxycyclopentanecarboxamide], the IC50 in data set [1] worked out at 5.5 µM.

With `CCCCC(=O)N(O)C[C@H]1CN(c2ccc(N3CCOCC3)c(F)c2)C(=O)O1` [PH-241, (R)-N-((3-(3-fluoro-4-morpholinophenyl)-2-oxooxazolidin-5-yl)methyl)-N-hydroxypentanamide], the IC50 in data set [1] was 2.2 µM; in data set [2] (Monocyte), 3.2 µM; in data set [3] (Mus musculus), 2.8 µM; on recombinant human 5-LO it was 3.3 µM. Further, the “Activity across the in vitro test systems (in words)” value in data set [4] is given as “active in all four test systems”.

With `CCCCCC(=O)ON(C[C@H]1CN(c2ccc(N3CCOCC3)c(F)c2)C(=O)O1)C(=O)CCCCC` [PH-246], the IC50 in data set [1] is 1.5 µM; in data set [2] it was 7.1 µM; in data set [3] it was 3.3 µM; at recombinant human 5-LO (setting [5]), 21.6 µM. The “Inhibition of isolated 5-LO enzyme activity (in words)” value at recombinant human 5-LO (cell-free experiments) was “very weak”.

Regarding `O=C(C1CCC1)N(O)C[C@H]1CN(c2ccc(N3CCOCC3)c(F)c2)C(=O)O1` [PH-245, (R)-N-((3-(3-fluoro-4-morpholinophenyl)-2-oxooxazolidin-5-yl)methyl)-N-hydroxycyclobutanecarboxamide], the IC50 in data set [1] is 3.4 µM.

On to `CC(c1cc2ccccc2s1)N(O)C(N)=O` (racemic) [Zileuton, (±)1–(1-(benzo[b]thiophen-2-yl)-ethyl)-1-hydroxyurea, reference compound], for which the IC50 in data set [1] was determined as 0.7 µM; in data set [2] (Monocyte), 0.5 µM; in data set [3] (Mus musculus), 0.4 µM.

Regarding `CCCCCCCC(=O)N(O)C[C@H]1CN(c2ccc(N3CCOCC3)c(F)c2)C(=O)O1` [PH-251, (R)-N-((3-(3-fluoro-4-morpholinophenyl)-2-oxooxazolidin-5-yl)methyl)-N-hydroxyoctanamide], the IC50 in data set [1] was 1.9 µM; in data set [2] (Monocyte), 2.4 µM; in data set [3] (Mus musculus), 0.2 µM; on recombinant human 5-LO, 1.6 µM; in data set [4] (summary statements, in vitro test systems, read-out: IC50 (test system not specified / across test systems)), less than 1 µM. The “Activity across the in vitro test systems (in words)” value in data set [4] was “active in all four test systems”.

On to `CC(C)CC(=O)N(O)C[C@H]1CN(c2ccc(N3CCOCC3)c(F)c2)C(=O)O1` [PH-239, (R)-N-((3-(3-fluoro-4-morpholinophenyl)-2-oxooxazolidin-5-yl)methyl)-N-hydroxy-3-methylbutanamide], for which the melting point fell in the range of 122 to 124.5 °C. For the same compound, in data set [1], the IC50 turned out to be 3.5 µM. Moreover, in data set [2] (Monocyte), the IC50 worked out at 8 µM. Also, the IC50 in data set [3] (Mus musculus) stood at 3.1 µM. Besides, the IC50 on recombinant human 5-LO is 4.7 µM. Besides, the “Activity across the in vitro test systems (in words)” value in data set [4] is reported as “active in all four test systems”.

On to `CC(C)CC(=O)ON(C[C@H]1CN(c2ccc(N3CCOCC3)c(F)c2)C(=O)O1)C(=O)CC(C)C` [PH-237, (R)-N-((3-(3-fluoro-4-morpholinophenyl)-2-oxooxazolidin-5-yl)methyl)-3-methyl-N-((3-methylbutanoyl)oxy)butanamide], for which the melting point lay within 89 to 90 °C. Moreover, in data set [1], the IC50 was greater than 50 µM. The IC50 in data set [2] (Monocyte) was greater than 50 µM. The IC50 in data set [3] (Mus musculus) was greater than 50 µM. In addition, the IC50 on recombinant human 5-LO was greater than 30 µM. Moreover, the “Activity across the in vitro test systems (in words)” value in data set [4] is “inactive in both systems”.

For the compound `O=C(C1CC1)N(O)C[C@H]1CN(c2ccc(N3CCOCC3)c(F)c2)C(=O)O1` [PH-211], the IC50 was determined as 1.3 µM in data set [1], 7.5 µM in data set [2], 8.7 µM in data set [3] and 3.5 µM at recombinant human 5-LO (setting [5]). In data set [4], the “Activity across the in vitro test systems (in words)” value is “active in all four test systems”.

With `CCCCCC(=O)N(O)C[C@H]1CN(c2ccc(N3CCOCC3)c(F)c2)C(=O)O1` [PH-247, (R)-N-((3-(3-fluoro-4-morpholinophenyl)-2-oxooxazolidin-5-yl)methyl)-N-hydroxyhexanamide], the melting point lay in the range of 118.5 to 120.5 °C. Besides, the IC50 in data set [1] turned out to be 2.3 µM. Moreover, the IC50 in data set [2] (Monocyte) was determined as 2.5 µM. Further, the IC50 in data set [3] (Mus musculus) was found to be 2.9 µM. In addition, the IC50 at recombinant human 5-LO amounted to 3.4 µM. The “Activity across the in vitro test systems (in words)” value in data set [4] is on record as “active in all four test systems”.
